Laboratory results as given in patent US8633251B2, “Derivatives of aminoalkanols, method of obtaining of aminoalkanols and their use” (Uniwersytet Jagiellonski, priority 2008, dated 2014).
Where a name gives a salt, the structure may show the parent alone. Read-outs that look alike come from different tables or passages of the source.

How the values were obtained:
neurotoxicity (rotarod) = experiment: Neurotoxicity test (TOX), rotarod, mice; format: in vivo
Experimental: (§1) In order to define anticonvulsant activity, screening tests were performed, using animal models of seizures. […] Each substance (after dissolving in methylcellulose) was normally tested in doses 30, 100, and 300 mg/kg body weight (b.w.) (mice) or in 30 and 50 mg/kg b.w. (rats) in two possible routes of administration: intraperitoneal (i.p.) or oral (p.o.). Appropriate tests were performed 0.5 and 4 h after administration of the compound. […] (mice) the tests were also performed in doses 10 and 3 mg/kg b.w.
It is performed with use of rotarod test. The animal is placed on a plastic rod (1 inch in diameter), rotating 6 rpm. The rod is placed on a level discouraging the animal to jump off. […] Neurotoxicity is stated if the animal cannot stay on the rod for 1 min. in any of 3 trials. Normally the test is performed in dose 30 mg/kg b.w. in 4 mice (0.5 h) and in 2 mice (4 h), in the dose 100 mg/kg b.w. in 8 mice (0.5 h) and in 4 mice (4 h) and in the dose 300 mg/kg b.w. in 4 mice (0.5 h) and 2 mice (4 h).

[1] = tested on: maximal electroshock seizures; experiment: Maximum Electroshock Seizure (MES) test, mice; format: in vivo
Experimental: as §1
Maximum Electroshock Seizure (MES) test is an electric test, verifying activity towards generalized tonic-clonic seizures (grand mal epilepsy). […] Its procedure consists in administration to an animal a mentioned dose, and after 0.5 or 4 h attaching corneal electrodes (after anesthetic eye-drops: 0.5% tetracaine hydrochloride in 0.9% NaCl) and turning on electric current (60 Hz, 0.2 s, 50 mA (mice) or 150 mA (rats)). […] Normally, in the dose 30 mg/kg b.w. the test is done in 1 mouse after 0.5 or 4 h, in the dose 100 mg/kg b.w.—in 3 mice, and in the dose 300 mg/kg b.w.—in 1 mouse.

[2] = mice, dose 100 mg/kg b.w., time 0.5 h
[3] = mice, dose 300 mg/kg b.w., time 0.5 h
[4] = mice, dose 30 mg/kg b.w., time 0.5 h
[5] = mice, dose 300 mg/kg b.w., time 4 h
[6] = Mus musculus, 0.5 h, read-out: MES, No. of protected animals/No. of used animals

## CCC(CO)NCCOc1cccc(C)c1C (stereo not drawn) [Compound 2, R,S-2N-[(2,3-dimethylphenoxy)ethyl]amino-1-butanol]
Neurotoxicity (rotarod); mouse, in vivo, 100 mg/kg
  TOX, No. of animals exhibiting motor impairment/no. of used animals: 8/8
Neurotoxicity (rotarod); mouse, in vivo, 300 mg/kg
  TOX, No. of animals exhibiting motor impairment/no. of used animals: 4/4
[1]; [2]
  MES, No. of protected animals/No. of used animals: 3/3

## Cc1cccc(OCCNC(C)(C)CO)c1C [Compound 3, 2N-[(2,3-dimethylphenoxy)ethyl]amino-2-methyl-1-propanol]
Neurotoxicity (rotarod); [2]
  TOX, No. of animals exhibiting motor impairment/no. of used animals: 7/8
Neurotoxicity (rotarod); [3]
  TOX, No. of animals exhibiting motor impairment/no. of used animals: 4/4
[1]; Mus musculus, mice, dose 100 mg/kg b.w., time 0.5 h, read-out: MES, No. of protected animals/No. of used animals (converted)
  responders at 100 mg/kg: 66.7%

## Cc1ccc(C)c(OCCNCC(C)O)c1 (stereo not drawn) [Compound 5, R,S-1N-[(2,5-dimethylphenoxy)ethyl]amino-2-propanol]
Neurotoxicity (rotarod); mouse, in vivo, 300 mg/kg
  TOX, No. of animals exhibiting motor impairment/no. of used animals: 4/4
[1]; [2]
  MES, No. of protected animals/No. of used animals: 3/3

## Cc1ccc(C)c(OCCNC(C)CO)c1 (stereo not drawn) [Compound 6, R,S-2N-[(2,5-dimethylphenoxy)ethyl]amino-1-propanol]
Neurotoxicity (rotarod); mouse, in vivo, 300 mg/kg
  TOX, No. of animals exhibiting motor impairment/no. of used animals: 4/4
[1]; [2]
  MES, No. of protected animals/No. of used animals: 3/3
[1]; [3]
  MES, No. of protected animals/No. of used animals: 1/1

## CCC(O)CNCCOc1cc(C)ccc1C (stereo not drawn) [Compound 7, R,S-1N-[(2,5-dimethylphenoxy)ethyl]amino-2-butanol]
Neurotoxicity (rotarod); mouse, in vivo, 100 mg/kg
  TOX, No. of animals exhibiting motor impairment/no. of used animals: 8/8
Neurotoxicity (rotarod); mouse, in vivo, 300 mg/kg
  TOX, No. of animals exhibiting motor impairment/no. of used animals: 4/4
[1]; [2]
  MES, No. of protected animals/No. of used animals: 3/3
[1]; [3]
  MES, No. of protected animals/No. of used animals: 1/1

## CCC(CO)NCCOc1cc(C)ccc1C (stereo not drawn) [Compound 8, R,S-2N-[(2,5-dimethylphenoxy)ethyl]amino-1-butanol]
Neurotoxicity (rotarod); mouse, in vivo, 100 mg/kg
  TOX, No. of animals exhibiting motor impairment/no. of used animals: 8/8
Neurotoxicity (rotarod); mouse, in vivo, 300 mg/kg
  TOX, No. of animals exhibiting motor impairment/no. of used animals: 4/4
[1]; [2]
  MES, No. of protected animals/No. of used animals: 3/3

## Cc1cccc(C)c1OCCNC(C)CO.Cl (stereo not drawn) [Compound 11a, R,S-2N-[(2,6-dimethylphenoxy)ethyl]amino-1-propanol hydrochloride]
Neurotoxicity (rotarod); mouse, in vivo, 30 mg/kg
  TOX, No. of animals exhibiting motor impairment/no. of used animals: 3/4
Neurotoxicity (rotarod); mouse, in vivo, 100 mg/kg
  TOX, No. of animals exhibiting motor impairment/no. of used animals: 8/8
Neurotoxicity (rotarod); mouse, in vivo, 300 mg/kg
  TOX, No. of animals exhibiting motor impairment/no. of used animals: 4/4
[1]; [4]
  MES, No. of protected animals/No. of used animals: 1/1
[1]; [2]
  MES, No. of protected animals/No. of used animals: 1/1

## Cc1cccc(C)c1OCCN[C@H](C)CO [Compound 12a, R-(−)-2N-[(2,6-dimethylphenoxy)ethyl]amino-1-propanol hydrochloride]
Neurotoxicity (rotarod); [5]
  TOX, No. of animals exhibiting motor impairment/no. of used animals: 1/1
[1]; mice, dose 100 mg/kg b.w., time 0.5 h, hydrochloride, 100 mg/kg
  MES, No. of protected animals/No. of used animals: 3/3

## Cc1cccc(C)c1OCCN[C@@H](C)CO.Cl [Compound 13a, S-(+)-2N-[(2,6-dimethylphenoxy)ethyl]amino-1-propanol hydrochloride]
Neurotoxicity (rotarod); mouse, in vivo, 100 mg/kg
  TOX, No. of animals exhibiting motor impairment/no. of used animals: 8/8
Neurotoxicity (rotarod); mouse, in vivo, 300 mg/kg
  TOX, No. of animals exhibiting motor impairment/no. of used animals: 4/4
[1]; [4]
  MES, No. of protected animals/No. of used animals: 1/1
[1]; [2]
  MES, No. of protected animals/No. of used animals: 3/3

## Cc1cccc(C)c1OCCNC(C)(C)CCO [Compound 15, 3N-[(2,6-dimethylphenoxy)ethyl]amino-3-methyl-1-butanol hydrochloride]
Neurotoxicity (rotarod); mice, dose 10 mg/kg b.w., time 0.5 h
  TOX, No. of animals exhibiting motor impairment/no. of used animals: 7/8
Neurotoxicity (rotarod); [4]
  TOX, No. of animals exhibiting motor impairment/no. of used animals: 4/4
Neurotoxicity (rotarod); [3]
  TOX, No. of animals exhibiting motor impairment/no. of used animals: 7/8
[1]; [6]
  responders at 10 mg/kg: 100%
  responders at 300 mg/kg: 100%

## Cc1cccc(C)c1OCCN[C@H](CO)C(C)C [Compound 16, L-2N-[(2,6-dimethylphenoxy)ethyl]amino-3-methyl-1-butanol hydrochloride]
Neurotoxicity (rotarod); [2]
  TOX, No. of animals exhibiting motor impairment/no. of used animals: 7/8
Neurotoxicity (rotarod); [3]
  TOX, No. of animals exhibiting motor impairment/no. of used animals: 4/4
[1]; [6]
  responders at 100 mg/kg: 100%

## Cc1cccc(C)c1OCCNCCCCCO [Compound 17, 5N-[(2,6-dimethylphenoxy)ethyl]amino-1-pentanol hydrochloride]
Neurotoxicity (rotarod); [2]
  TOX, No. of animals exhibiting motor impairment/no. of used animals: 7/8
Neurotoxicity (rotarod); [3]
  TOX, No. of animals exhibiting motor impairment/no. of used animals: 4/4
Neurotoxicity (rotarod); [5]
  TOX, No. of animals exhibiting motor impairment/no. of used animals: 1/1
[1]; [6]
  responders at 100 mg/kg: 100%

## Cc1cccc(C)c1OCCNCC(O)c1ccccc1 (stereo not drawn) [Compound 19, R,S-2N-[(2,6-dimethylphenoxy)ethyl]amino-1-phenylethanol]
Neurotoxicity (rotarod); [4]
  TOX, No. of animals exhibiting motor impairment/no. of used animals: 1/4
Neurotoxicity (rotarod); [2]
  TOX, No. of animals exhibiting motor impairment/no. of used animals: 8/8
Neurotoxicity (rotarod); [3]
  TOX, No. of animals exhibiting motor impairment/no. of used animals: 4/4
[1]; [4]
  MES, No. of protected animals/No. of used animals: 1/1
[1]; [2]
  MES, No. of protected animals/No. of used animals: 3/3

## Cc1cccc(C)c1OCCNC[C@@H](O)c1ccccc1 [Compound 21, S-(+)-2N-[(2,6-dimethylphenoxy)ethyl]amino-1-phenylethanol]
Neurotoxicity (rotarod); [2]
  TOX, No. of animals exhibiting motor impairment/no. of used animals: 7/8
Neurotoxicity (rotarod); [3]
  TOX, No. of animals exhibiting motor impairment/no. of used animals: 4/4
[1]; [4]
  MES, No. of protected animals/No. of used animals: 1/1
[1]; [2]
  MES, No. of protected animals/No. of used animals: 3/3

## Cc1cccc(Cl)c1OCCNC(C)CO (stereo not drawn) [Compound 24, R,S-2N-[(2-chlor-6-methylphenoxy)ethyl]amino-1-propanol]
Neurotoxicity (rotarod); [2]
  TOX, No. of animals exhibiting motor impairment/no. of used animals: 5/8
Neurotoxicity (rotarod); [3]
  TOX, No. of animals exhibiting motor impairment/no. of used animals: 4/4
[1]; [2]
  MES, No. of protected animals/No. of used animals: 3/3

## CCC(O)CNCCOc1c(C)cccc1Cl (stereo not drawn) [Compound 25, R,S-1N-[(2-chlor-6-methylphenoxy)ethyl]amino-2-butanol]
Neurotoxicity (rotarod); [2]
  TOX, No. of animals exhibiting motor impairment/no. of used animals: 8/8
Neurotoxicity (rotarod); [3]
  TOX, No. of animals exhibiting motor impairment/no. of used animals: 4/4
[1]; [4]
  MES, No. of protected animals/No. of used animals: 1/1

## CCC(CO)NCCOc1c(C)cccc1Cl.Cl (stereo not drawn) [Compound 26a, R,S-2N-[(2-chlor-6-methylphenoxy)ethyl]amino-1-butanol hydrochloride]
Neurotoxicity (rotarod); [4]
  TOX, No. of animals exhibiting motor impairment/no. of used animals: 3/4
Neurotoxicity (rotarod); [2]
  TOX, No. of animals exhibiting motor impairment/no. of used animals: 8/8
Neurotoxicity (rotarod); mice, dose 100 mg/kg b.w., time 4 h
  TOX, No. of animals exhibiting motor impairment/no. of used animals: 1/4
Neurotoxicity (rotarod); [3]
  TOX, No. of animals exhibiting motor impairment/no. of used animals: 4/4
[1]; [4]
  MES, No. of protected animals/No. of used animals: 1/1
[1]; [2]
  MES, No. of protected animals/No. of used animals: 1/1

## CC[C@H](CO)NCCOc1c(C)cccc1Cl.Cl [Compound 27a, R-(−)-2N-[(2-chlor-6-methylphenoxy)ethyl]amino-1-butanol hydrochloride]
Neurotoxicity (rotarod); [2]
  TOX, No. of animals exhibiting motor impairment/no. of used animals: 7/8
Neurotoxicity (rotarod); [3]
  TOX, No. of animals exhibiting motor impairment/no. of used animals: 4/4
[1]; [4]
  MES, No. of protected animals/No. of used animals: 1/1
[1]; [2]
  MES, No. of protected animals/No. of used animals: 2/3

## CC[C@@H](CO)NCCOc1c(C)cccc1Cl.Cl [Compound 28a, S-(+)-2N-[(2-chlor-6-methylphenoxy)ethyl]amino-1-butanol hydrochloride]
Neurotoxicity (rotarod); [2]
  TOX, No. of animals exhibiting motor impairment/no. of used animals: 5/8
Neurotoxicity (rotarod); [3]
  TOX, No. of animals exhibiting motor impairment/no. of used animals: 4/4
[1]; [2]
  MES, No. of protected animals/No. of used animals: 1/1

## Cc1cccc(Cl)c1OCCNC(C)(CO)CO [Compound 29, 2N-[(2-chlor-6-methylphenoxy)ethyl]amino-2-methyl-1,3-propandiol]
Neurotoxicity (rotarod); mouse, in vivo, 100 mg/kg
  TOX, No. of animals exhibiting motor impairment/no. of used animals: 4/8
Neurotoxicity (rotarod); mouse, in vivo, 300 mg/kg
  TOX, No. of animals exhibiting motor impairment/no. of used animals: 4/4
[1]; [2]
  MES, No. of protected animals/No. of used animals: 2/3

## Cc1cccc(Cl)c1OCCNCC(O)c1ccccc1 (stereo not drawn) [Compound 31, R,S-2N-[(2-chlor-6-methylphenoxy)ethyl]amino-1-phenylethanol]
Neurotoxicity (rotarod); [2]
  TOX, No. of animals exhibiting motor impairment/no. of used animals: 8/8
Neurotoxicity (rotarod); [3]
  TOX, No. of animals exhibiting motor impairment/no. of used animals: 4/4
[1]; [4]
  MES, No. of protected animals/No. of used animals: 1/1
[1]; [2]
  MES, No. of protected animals/No. of used animals: 3/3
[1]; [3]
  MES, No. of protected animals/No. of used animals: 1/1

## CCC(O)CNCCOc1ccc(Cl)cc1C (stereo not drawn) [Compound 34, R,S-1N-[(4-chlor-2-methylphenoxy)ethyl]amino-2-butanol]
Neurotoxicity (rotarod); [4]
  TOX, No. of animals exhibiting motor impairment/no. of used animals: 1/4
Neurotoxicity (rotarod); [2]
  TOX, No. of animals exhibiting motor impairment/no. of used animals: 7/8
Neurotoxicity (rotarod); [3]
  TOX, No. of animals exhibiting motor impairment/no. of used animals: 4/4
[1]; [2]
  MES, No. of protected animals/No. of used animals: 3/3
